According to US20240239788A1, “SMALL MOLECULE INHIBITORS OF KRAS G12D MUTANT” (Merck Sharp & Dohme LLC, priority 2021, published 2024):
Counter-ions that a name gives are not always drawn.

The compounds below were run against KRAS protein containing G12D mutation (Homo sapiens (Human), UniProt P01116, G12D) (assay: SOS-catalyzed nucleotide exchange assay (GNE), TR-FRET). Conditions: biotinylated KRAS G12D, SOS and GTP, 60-minute incubation.
Type: biochemical
Method: Compounds are added to this complex and then after a 60-minute incubation time the mixture is treated with SOS and unlabeled GTP. Small molecule inhibitors stabilize the Bodipy-GDP complex whereas the untreated protein rapidly exchanges Bodipy-GDP for unlabeled GTP resulting in reduced TR-FRET signal.
This solution is referred to as biotinylated KRAS G12D stock solution.

KRAS protein containing G12D mutation, sequence (P01116 other isoform, or with tags, fused parts or gaps G12D (already in the parent)): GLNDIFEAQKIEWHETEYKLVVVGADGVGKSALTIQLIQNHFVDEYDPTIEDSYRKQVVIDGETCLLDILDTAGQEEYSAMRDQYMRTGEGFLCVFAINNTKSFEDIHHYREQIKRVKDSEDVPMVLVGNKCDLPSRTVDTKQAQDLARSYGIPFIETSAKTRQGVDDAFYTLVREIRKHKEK

| IC50 [nM] | Compound |
| --- | --- |
| 2.04 | Cc1cc(N)nc(-c2c(Cl)cc3c(N4CC5CCC(C4)N5)nc(OC[C@@]45CCCN4[C@H](CO)CC5)nc3c2F)c1C(F)(F)F [Ex. 150] |
| 1280 | C[C@]12CC[C@H](CN(c3nc(OC[C@@]45CCCN4C[C@H](F)C5)nc4c(F)c(-c5cc(F)cc6cccc(Cl)c56)c(F)cc34)C1)N2 [Ex. 158, 7-(8-chloro-3-fluoro-naphthalen-1-yl)-6,8-difluoro-2-(((2R,7aS)-2-fluorotetrahydro-1H-pyrrolizin-7a(5H)-yl)-methoxy)-4-((1S,5R)-1-methyl-3,8-diaza-bicyclo[3.2.1]octan-3-yl)quinazoline] |
| 591 | CN1[C@@H]2CC[C@H]1CN(c1nc(OC[C@@]34CCCN3C[C@H](F)C4)nc3c(F)c(-c4cc(O)cc5cccc(Cl)c45)c(F)cc13)C2 [Ex. 161, 5-chloro-4-(6,8-difluoro-2-(((2R,7aS)-2-fluorotetrahydro-1H-pyrrolizin-7a(5H)-yl)-methoxy)-4-((1R,5S)-8-methyl-3,8-diaza-bicyclo[3.2.1]octan-3-yl)quinazolin-7-yl)-naphthalen-2-ol] |
| 1310 | Cc1cc(-c2c(Cl)cc3c(N4C[C@H]5CC[C@@H](C4)N5)nc(OC[C@@]45CCCN4C[C@H](F)C5)nc3c2F)nc(N)c1OC(F)F [Ex. 168, 6-(4-((1R,5S)-3,8-diazabicyclo[3.2.1]-octan-3-yl)-6-chloro-8-fluoro-2-(((2R,7aS)-2-fluorotetrahydro-1H-pyrrolizin-7a(5H)-yl)-methoxy)quinazolin-7-yl)-3-(difluorometh-oxy)-4-methylpyridin-2-amine] |
| 1790 | Cc1nc(N)c(C)c(-c2c(F)cc3c(N4C[C@H]5CC[C@@H](C4)N5)nc(OC[C@@]45CCCN4C[C@H](F)C5)nc3c2F)c1C1CC1 [Ex. 198, 4-(4-((1R,5S)-3,8-diazabicyclo[3.2.1]-octan-3-yl)-6,8-difluoro-2-(((2R,7aS)-2-fluorotetrahydro-1H-pyrrolizin-7a(5H)-yl)-methoxy)quinazolin-7-yl)-5-cyclopropyl-3,6-dimethylpyridin-2-amine] |
| 69.8 | C[C@]12CC[C@H](CN(c3nc(OC[C@@H]4CCCN4CCO)nc4c(F)c(-c5cc(O)cc6ccccc56)c(F)cc34)C1)N2 [Ex. 225, 4-(6,8-difluoro-2-(((S)-1-(2-hydroxyethyl)pyrrolidin-2-yl)methoxy)-4-((1S,5R)-1-methyl-3,8-diazabicyclo[3.2.1]octan-3-yl)quinazolin-7-yl)naphthalen-2-ol] |
| 55.1 | CN(CC(C)(C)O)CC1(COc2nc(N3C[C@H]4CC[C@@](C)(C3)N4)c3cc(F)c(-c4cc(O)cc5ccccc45)c(F)c3n2)CC1 [Ex. 226, 4-(6,8-difluoro-2-((1-(((2-hydroxy-2-methylpropyl)(methyl)amino)methyl)cyclopropyl)methoxy)-4-((1S,5R)-1-methyl-3,8-diazabicyclo[3.2.1]octan-3-yl)quinazolin-7-yl)naphthalen-2-ol] |
| 3280 | NC1(COc2nc(N3CC4CCC(C3)N4)c3cc(Cl)c(-c4cc(O)cc5ccccc45)c(F)c3n2)CCC(O)C1 (stereo not shown) [Example 108, 4-(2-((1-amino-3-hydroxycyclopentyl)methoxy)-4-(3,8-diazabicyclo[3.2.1]octan-3-yl)-6-chloro-8-fluoroquinazolin-7-yl)naphthalen-2-ol, TFA] |
| 2680 | Oc1cc(-c2c(Cl)cc3c(N4CC5CCC(C4)N5)nc(OCC4CNC4)nc3c2F)c2ccccc2c1 [Example 109, 4-(2-(azetidin-3-ylmethoxy)-4-(3,8-diazabicyclo[3.2.1]octan-3-yl)-6-chloro-8-fluoroquinazolin-7-yl)naphthalen-2-ol, TFA] |
| 770 | Oc1cc(-c2c(Cl)cc3c(N4CC5CCC(C4)N5)nc(OCC4(F)CNC4)nc3c2F)c2ccccc2c1 [Example 110, 4-(4-(3,8-diazabicyclo [3.2.1]octan-3-yl)-6-chloro-8-fluoro-2-((3-fluoroazetidin-3-yl)methoxy)quinazolin-7-yl)naphthalen-2-ol, TFA] |
